{"source": "paper PMC10987521", "about": "“An all-in-one tetrazine reagent for cysteine-selective labeling and bioorthogonal activable prodrug construction” (Nature Communications, 2024)", "key": {"B16F10 melanoma tumor": {"test_system": "B16F10 melanoma tumor", "experiment": "In vivo anticancer efficacy, subcutaneous B16F10 melanoma tumor model", "parameters": "species or system BALB/c nude mice", "details": "four i.v. courses, 3.67 μmol·kg^−1 (TCO-P4 36.7 μmol·kg^−1), n = 5", "method": "Tumor-bearing mice were established by subcutaneously injecting a suspension of 5 × 10^5 B16F10 cells per mouse into the front flank of each nude mouse. When tumor volume reached 50−70 mm^3, the animals were randomly divided into five groups (n = 5). The mice were administered different compounds suspended in PBS via the tail vein every 3 days for a total of four times.\nThe mice underwent four treatment courses on day 0, day 3, day 6, and day 9. Tumor size and body weight were measured every day. Tumor volume was calculated via the following formula: V = 1/2 × (minor axis) × (major axis)[2].\nAfter 12 days, the mice were sacrificed and dissected to obtain tumor tissues and main organs, including heart, liver, spleen, lung, and kidney. Subsequently, all tissues were fixed in a 4% paraformaldehyde solution, routinely paraffin-embedded and sectioned, and then stained with hematoxylin and eosin, as well as using TdT-mediated dUTP nick-end labeling (TUNEL) for subsequent pathological analysis. TUNEL-positive cells appeared fluorescent green, representing the apoptosis of tumor cells (nuclei were fluorescent blue, stained with DAPI).\n13. In vivo anticancer efficacy […]\n13.2 Calculation of the tumor growth inhibition values (TGI)\nTumor growth inhibition values (TGI) were calculated using the following formula: TGI (%) = (1 − RTVtreatment/\nRTVcontrol)*100. RTV refers to relative tumor volume, representing the ratio of the volume at the end of treatment to the\nvolume at the beginning of treatment. […]"}, "[1]": {"assay_type": "physicochemical", "details": "for intact (%) under 10 mM GSH: 520 nm HPLC–MS (PyTz UV–Vis)", "method": "All tetrazine compounds were diluted to a concentration of 50 μM or 2 μM using PBS (10% DMSO, pH 7.4). A stock solution of GSH (400 mM in PBS) was then added to achieve a final concentration of 10 mM. The mixture was homogenized and incubated at 37 °C for 12 h. The stability of the compounds (including all peptide conjugates and PmTz) was assessed by measuring the decrease in peak area at 520 nm (with the initial peak area at 0 min defined as 100%). This measurement was monitored by HPLC–MS. Similarly, the stability of PyTz was determined by monitoring the decrease in peak intensity at 520 nm using UV–Vis. Statistical analysis was performed on data from three replicates to calculate the mean and standard deviation. […]\nResponse 1: We appreciate your comment. We conducted stability tests on RGD-Dox and RGD-SN-38 in 10 mM GSH at a concentration of 2 μM, which is below the critical micelle concentrations. After incubating at 37 °C for 12 hours, we observed that 95% of RGD-Dox and 85% of RGD-SN-38 remained intact. This stability is slightly less than […]\nthe observed stability is intrinsic to the peptide-drug conjugates, with a slight enhancement due to micelle […]\nconcentrations, after 12 hours of incubation at 37 °C (Figure S46). […]\nintrinsic to the PDCs, with a slight enhancement by micelle formation.\nDetails of these experiments have been included in the Supplementary Information (Page S42), as outlined below:\nRGD-Dox and RGD-SN-38 were diluted to a concentration of 2 μM using PBS (10% DMSO, pH 7.4). A stock solution of GSH (400 mM in PBS) was then added to achieve a final concentration of 10 mM. The mixture was homogenized and incubated at 37 °C for 12 hours. Stability was assessed by measuring the decrease in peak area at 520 nm (with the initial peak area at 0 min defined as 100%). This measurement was monitored by HPLC–MS. Statistical analysis was performed on data from three replicates to calculate the mean and standard deviation."}, "B16F10 cells": {"test_system": "B16F10 cells", "experiment": "Cytotoxicity (CCK8, 48 h) of drugs, PDCs, activable-Drugs and TCO, B16F10", "assay_type": "cell-based, Mouse", "details": "200 μM TCO"}, "U87 cells": {"test_system": "U87 cells", "experiment": "Cytotoxicity (CCK8, 48 h) of drugs, PDCs, activable-Drugs and TCO, U87", "assay_type": "cell-based, Human", "details": "200 μM TCO"}, "SKOV3 cells": {"test_system": "SKOV3 cells", "experiment": "Cytotoxicity (CCK8, 48 h) of drugs, PDCs, activable-Drugs and TCO, SKOV3", "assay_type": "cell-based, Human", "details": "200 μM TCO"}, "LX2 cells": {"test_system": "LX2 cells", "experiment": "Cytotoxicity (CCK8, 48 h) of drugs, PDCs, activable-Drugs and TCO, LX2", "assay_type": "cell-based, Human", "details": "200 μM TCO"}, "MDA-MB-231 cells": {"test_system": "MDA-MB-231 cells", "experiment": "Cytotoxicity (CCK8, 48 h) of drugs, PDCs, activable-Drugs and TCO, MDA-MB-231", "assay_type": "cell-based, Human", "details": "200 μM TCO"}, "HepG2 cells": {"test_system": "HepG2 cells", "experiment": "Cytotoxicity (CCK8, 48 h) of drugs, PDCs, activable-Drugs and TCO, HepG2", "details": "200 μM TCO"}, "[2]": {"details": "1 h, Data 1, 50 μM, PBS pH 7.4, 10% DMSO, 37 °C"}, "[3]": {"details": "1 h, Data 2, 50 μM, PBS pH 7.4, 10% DMSO, 37 °C"}, "[4]": {"details": "1 h, Data 3, 50 μM, PBS pH 7.4, 10% DMSO, 37 °C"}}, "note": "“Also recorded” adds a separate entry of the source. Read-outs that look alike come from different tables or passages of the source."}
{"smiles": "COCCOCCOCCOCCC(=O)NCCC1(O)CC/C=C/CCC1", "note": "(racemic) [TCO-P4]", "values": [{"measurement": "tumor growth / inhibition in words", "setting": "B16F10 melanoma tumor", "result": "did not exhibit significant tumor inhibition; also recorded: rapid tumor growth"}]}
{"smiles": "Cc1nnc(-c2ncccn2)nn1", "note": "[PmTz, pyrimidine tetrazine, reference compound]", "values": [{"measurement": "intact (%) under 10 mM GSH", "setting": "[1]; [2]", "result": 86.4895, "unit": "%"}, {"measurement": "intact (%) under 10 mM GSH", "setting": "[1]; [3]", "result": 82.9483, "unit": "%"}, {"measurement": "intact (%) under 10 mM GSH", "setting": "[1]; [4]", "result": 87.2017, "unit": "%"}, {"measurement": "intact (%) under 10 mM GSH", "setting": "[1]; 3 h, Data 1, 50 μM, PBS pH 7.4, 10% DMSO, 37 °C", "result": 75.526, "unit": "%"}, {"measurement": "intact (%) under 10 mM GSH", "setting": "[1]; 3 h, Data 2, 50 μM, PBS pH 7.4, 10% DMSO, 37 °C", "result": 72.3872, "unit": "%"}, {"measurement": "intact (%) under 10 mM GSH", "setting": "[1]; 3 h, Data 3, 50 μM, PBS pH 7.4, 10% DMSO, 37 °C", "result": 74.6204, "unit": "%"}, {"measurement": "intact (%) under 10 mM GSH", "setting": "[1]; 5 h, Data 1, 50 μM, PBS pH 7.4, 10% DMSO, 37 °C", "result": 63.0897, "unit": "%"}, {"measurement": "intact (%) under 10 mM GSH", "setting": "[1]; 5 h, Data 2, 50 μM, PBS pH 7.4, 10% DMSO, 37 °C", "result": 68.3168, "unit": "%"}, {"measurement": "intact (%) under 10 mM GSH", "setting": "[1]; 5 h, Data 3, 50 μM, PBS pH 7.4, 10% DMSO, 37 °C", "result": 70.9327, "unit": "%"}, {"measurement": "intact (%) under 10 mM GSH", "setting": "[1]; 8 h, Data 1, 50 μM, PBS pH 7.4, 10% DMSO, 37 °C", "result": 50.7674, "unit": "%"}, {"measurement": "intact (%) under 10 mM GSH", "setting": "[1]; 8 h, Data 2, 50 μM, PBS pH 7.4, 10% DMSO, 37 °C", "result": 52.9065, "unit": "%"}, {"measurement": "intact (%) under 10 mM GSH", "setting": "[1]; 8 h, Data 3, 50 μM, PBS pH 7.4, 10% DMSO, 37 °C", "result": 52.3167, "unit": "%"}, {"measurement": "remained intact with 10 mM GSH", "setting": "[1]; 12 h, 37 °C, 50 μM, PBS pH 7.4, 10% DMSO, HPLC–MS peak area 520 nm, mean of n = 3", "result": 38, "unit": "%"}, {"measurement": "intact (%) under 10 mM GSH", "setting": "[1]; 12 h, Data 1, 50 μM, PBS pH 7.4, 10% DMSO, 37 °C", "result": 38.6932, "unit": "%"}, {"measurement": "intact (%) under 10 mM GSH", "setting": "[1]; 12 h, Data 2, 50 μM, PBS pH 7.4, 10% DMSO, 37 °C", "result": 39.3861, "unit": "%"}, {"measurement": "intact (%) under 10 mM GSH", "setting": "[1]; 12 h, Data 3, 50 μM, PBS pH 7.4, 10% DMSO, 37 °C", "result": 35.5445, "unit": "%"}]}
{"smiles": "c1ccc(-c2nnc(-c3ccccn3)nn2)nc1", "note": "[PyTz, reference compound]", "values": [{"measurement": "intact (%) under 10 mM GSH", "setting": "[1]; 0.5 h, Data 1, 50 μM, PBS pH 7.4, 10% DMSO, 37 °C", "result": 53, "unit": "%"}, {"measurement": "intact (%) under 10 mM GSH", "setting": "[1]; 0.5 h, Data 2, 50 μM, PBS pH 7.4, 10% DMSO, 37 °C", "result": 43.8, "unit": "%"}, {"measurement": "intact (%) under 10 mM GSH", "setting": "[1]; 0.5 h, Data 3, 50 μM, PBS pH 7.4, 10% DMSO, 37 °C", "result": 45, "unit": "%"}, {"measurement": "intact (%) under 10 mM GSH", "setting": "[1]; [2]", "result": 19, "unit": "%"}, {"measurement": "intact (%) under 10 mM GSH", "setting": "[1]; [3]", "result": 19.7, "unit": "%"}, {"measurement": "intact (%) under 10 mM GSH", "setting": "[1]; [4]", "result": 15.4, "unit": "%"}, {"measurement": "intact (%) under 10 mM GSH", "setting": "[1]; 1.5 h, Data 1, 50 μM, PBS pH 7.4, 10% DMSO, 37 °C", "result": 1.3, "unit": "%"}, {"measurement": "intact (%) under 10 mM GSH", "setting": "[1]; 1.5 h, Data 2, 50 μM, PBS pH 7.4, 10% DMSO, 37 °C", "result": 4, "unit": "%"}, {"measurement": "intact (%) under 10 mM GSH", "setting": "[1]; 1.5 h, Data 3, 50 μM, PBS pH 7.4, 10% DMSO, 37 °C", "result": 2.9, "unit": "%"}, {"measurement": "time to degradation with 10 mM GSH", "setting": "[1]; pH 7.4", "result": "≤ 3", "unit": "h"}]}
{"smiles": "C1=C/CCCCCC/1", "note": "[TCO, trans-cyclooctene]", "values": [{"measurement": "B16F10 (Cell viability%)", "setting": "B16F10 cells; Data 1", "result": 97.5688, "unit": "%"}, {"measurement": "B16F10 (Cell viability%)", "setting": "B16F10 cells; Data 2", "result": 97.508, "unit": "%"}, {"measurement": "B16F10 (Cell viability%)", "setting": "B16F10 cells; Data 3", "result": 97.9504, "unit": "%"}, {"measurement": "U87 (Cell viability%)", "setting": "U87 cells; Data 1", "result": 96.2952, "unit": "%"}, {"measurement": "U87 (Cell viability%)", "setting": "U87 cells; Data 2", "result": 96.092, "unit": "%"}, {"measurement": "U87 (Cell viability%)", "setting": "U87 cells; Data 3", "result": 96.4775, "unit": "%"}, {"measurement": "SKOV3 (Cell viability%)", "setting": "SKOV3 cells; Data 1", "result": 93.7367, "unit": "%"}, {"measurement": "SKOV3 (Cell viability%)", "setting": "SKOV3 cells; Data 2", "result": 92.4982, "unit": "%"}, {"measurement": "SKOV3 (Cell viability%)", "setting": "SKOV3 cells; Data 3", "result": 93.3583, "unit": "%"}, {"measurement": "LX2 (Cell viability%)", "setting": "LX2 cells; Data 1", "result": 99.7395, "unit": "%"}, {"measurement": "LX2 (Cell viability%)", "setting": "LX2 cells; Data 2", "result": 98.5462, "unit": "%"}, {"measurement": "LX2 (Cell viability%)", "setting": "LX2 cells; Data 3", "result": 97.8594, "unit": "%"}, {"measurement": "MDA-MB-231 (Cell viability%)", "setting": "MDA-MB-231 cells; Data 1", "result": 96.0832, "unit": "%"}, {"measurement": "MDA-MB-231 (Cell viability%)", "setting": "MDA-MB-231 cells; Data 2", "result": 97.4309, "unit": "%"}, {"measurement": "MDA-MB-231 (Cell viability%)", "setting": "MDA-MB-231 cells; Data 3", "result": 97.8186, "unit": "%"}, {"measurement": "HepG2 (Cell viability%)", "setting": "HepG2 cells; Data 1", "result": 94.3888, "unit": "%"}, {"measurement": "HepG2 (Cell viability%)", "setting": "HepG2 cells; Data 2", "result": 93.5935, "unit": "%"}, {"measurement": "HepG2 (Cell viability%)", "setting": "HepG2 cells; Data 3", "result": 92.7384, "unit": "%"}]}
